pEC50, pKi: −log10 of the molar value.

As usually defined, the pEC50 is the negative decadic logarithm of the EC50, by convention in mol/L. Usually pKi stands for the negative decadic logarithm of the Ki, by convention in mol/L.

In assay [1] the test system is genotype 1b (Con1) wild-type transient HCV replicon in Huh-7-derived cells. The experiment in a line: Transient-transfected HCV replicon EC50, genotype 1b wild type. The class given is cell-based. The following applies: Hepatitis C virus; transient-transfected replicon genotype 1b wild type, 72 h; read-out: EC50 1B WT. (In general: Replicon systems follow genome replication, usually without infectious particles.)

A further assay concerns the target T1, NS3 genotype 3a protease (UniProt Q81258).
T1 construct: Purified NS3 protease domain (amino acids 1-181) of the genotype 1b and 3a virus were generated as above; fused on or other part: N-terminal hexahistidine tag and rTEV protease cleavage site (vector p28-N6H-Tev-NS3(181)3)
T1 sequence (Q81258 1033-1663): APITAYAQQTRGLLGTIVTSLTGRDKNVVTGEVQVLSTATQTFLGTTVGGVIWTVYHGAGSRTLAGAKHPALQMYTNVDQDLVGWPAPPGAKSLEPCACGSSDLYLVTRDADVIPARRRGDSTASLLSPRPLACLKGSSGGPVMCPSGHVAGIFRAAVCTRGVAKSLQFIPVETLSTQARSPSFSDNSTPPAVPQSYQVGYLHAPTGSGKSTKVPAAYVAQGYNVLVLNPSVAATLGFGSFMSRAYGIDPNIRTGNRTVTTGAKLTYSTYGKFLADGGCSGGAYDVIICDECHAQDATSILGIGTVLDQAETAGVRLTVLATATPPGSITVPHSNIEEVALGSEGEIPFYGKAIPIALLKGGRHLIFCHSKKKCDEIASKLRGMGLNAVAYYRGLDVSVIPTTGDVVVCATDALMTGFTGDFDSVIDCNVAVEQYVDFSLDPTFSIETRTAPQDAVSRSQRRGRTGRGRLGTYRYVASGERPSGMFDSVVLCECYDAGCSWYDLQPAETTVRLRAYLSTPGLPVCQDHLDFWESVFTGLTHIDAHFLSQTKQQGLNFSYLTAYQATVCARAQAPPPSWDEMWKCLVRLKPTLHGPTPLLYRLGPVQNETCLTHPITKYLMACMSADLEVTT
The experiment in a line: Ki determination, NS3 protease genotype 3a (fluorogenic depsipeptide substrate). The format is biochemical, hepatitis C virus. The following applies: 200 pM enzyme, 20 μM NS4A peptide, 2 μM substrate, read-out: Ki 3A. Put shortly: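 Refolded His-tagged NS3 protease domain (aa 1-181, genotype 3a) at 200 pM with 20 μM NS4A peptide was pre-incubated 1 h at RT with inhibitor (100 nM–5 pM, 3-fold), then 2 μM FRET depsipeptide substrate was added in HEPES/40% glycerol/10% DMSO buffer. Steady-state rates over 90-120 min (ex 340/em 490 nm) versus inhibitor concentration gave Ki.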

Assay [2] has as its system genotype 1a transient HCV replicon, NS3/4a protease inhibitor resistant variant R155K, in Huh-7-derived cells. The experiment in a line: Transient-transfected HCV replicon EC50, genotype 1a R155K. The class given is cell-based. The settings on record: Hepatitis C virus, 72 h, read-out: EC50 1A R155K.

On to `CC[C@@H]1[C@@H]2CN(C(=O)[C@H](C(C)(C)C)NC(=O)O[C@]3(C)CCC[C@H]3CCCCCc3nc4ccc(OC)cc4nc3O2)[C@@H]1C(=O)N[C@]1(C(=O)NS(=O)(=O)C2(C)CC2)C[C@H]1CC(F)F` [Example 41, (3aR,7S,10S,11S,12R,24aR)-7-tert-butyl-N-[(1R,2S)-2-(2,2-difluoroethyl)-1-{[(1-methylcyclopropyl)sulfonyl]carbamoyl}cyclopropyl]-11-ethyl-16-methoxy-3a-methyl-5,8-dioxo-1,2,3,3a,5,6,7,8,11,12,20,21,22,23,24,24a-hexadecahydro-10H-9,12-methanocyclopenta[18,19][1,10,3,6]dioxadiazacyclononadecino[11,12-b]quinoxaline-10-carboxamide], for which the pEC50 in assay [1] was 6.81. Further, on NS3 genotype 3a protease, the pKi is 9.10.

In the case of `COc1ccc2nc3c(nc2c1)O[C@H]1CN(C(=O)[C@H](C(C)(C)C)NC(=O)O[C@@H]2C[C@H]2CCCCC3F)[C@H](C(=O)N[C@]2(C(=O)NS(=O)(=O)C3(C)CC3)C[C@H]2C(F)F)[C@@H]1C` (stereo partly drawn) [Example 47, (1aR,5S,8S,9S,10R,22aR)-5-tert-butyl-N-[(1R,2R)-2-(difluoromethyl)-1-{[(1-methylcyclopropyl)sulfonyl]carbamoyl}cyclopropyl]-18-fluoro-14-methoxy-9-methyl-3,6-dioxo-1,1a,3,4,5,6,9,10,18,19,20,21,22,22a-tetradecahydro-8H-7,10-methanocyclopropa[18,19][1,10,3,6]dioxadiazacyclononadecino[11,12-b]quinoxaline-8-carboxamide], the negative logarithm of the EC50 (pEC50) is 8.70 in assay [1] and 8.21 in assay [2]. Moreover, the negative logarithm of the Ki (pKi) at NS3 genotype 3a protease was 9.72.

Consider `CC[C@@H]1[C@@H]2CN(C(=O)[C@H](C(C)(C)C)NC(=O)O[C@@H]3C[C@H]3CC/C=C/C(F)(F)C3Nc4ccc(C#N)cc4N=C3O2)[C@@H]1C(=O)N[C@]1(C(=O)NS(=O)(=O)C2(C)CC2)C[C@H]1C(F)F` (stereo partly drawn) [Example 78, (1aR,5S,8S,9S,10R,19E,22aR)-5-tert-butyl-14-cyano-N-[(1R,2R)-2-(difluoromethyl)-1-{[(1-methylcyclopropyl)sulfonyl]carbamoyl}cyclopropyl]-9-ethyl-18,18-difluoro-3,6-dioxo-1,1a,3,4,5,6,9,10,17,17a,18,21,22,22a-tetradecahydro-8H-7,10-methanocyclopropa[18,19][1,10,3,6]dioxadiazacyclononadecino[11,12-b]quinoxaline-8-carboxamide], for which the figures for the negative logarithm of the EC50 (pEC50) in assay [1] and in assay [2] were 6.81 and 6.65, respectively. Also, on NS3 genotype 3a protease, the pKi is 9.09.

Turning to `C[C@@H]1[C@@H]2CN(C(=O)[C@H](C(C)(C)C)NC(=O)O[C@@H]3C[C@H]3CCCCC(F)(F)c3nc4ccc(Cl)cc4nc3O2)[C@@H]1C(=O)N[C@]1(C(=O)NS(=O)(=O)C2(C)CC2)C[C@H]1C(F)F` [Example 88, (1aR,5S,8S,9S,10R,22aR)-5-tert-butyl-14-chloro-N-[(1R,2R)-2-(difluoromethyl)-1-{[(1-methylcyclopropyl)sulfonyl]carbamoyl}cyclopropyl]-18,18-difluoro-9-methyl-3,6-dioxo-1,1a,3,4,5,6,9,10,18,19,20,21,22,22a-tetradecahydro-8H-7,10-methanocyclopropa[18,19][1,10,3,6]dioxadiazacyclononadecino[11,12-b]quinoxaline-8-carboxamide], the negative logarithm of the EC50 (pEC50) in assay [1] was 8.26; in assay [2], 7.85. In addition, at NS3 genotype 3a protease, the pKi was 9.54.

The record behind these values is patent US20150175655A1 (priority 2012, published 2015).
